The test system of series [1] is MATH1-Prune1/TP53-/- cells. As to the kind of experiment: Mouse cytokine antibody array on conditioned media. The class given is cell-based, murine. The settings on record: 10 µM, 24 hours; n.61 cytokines measured. The method, then: The conditioned media collected from three different vehicle- or 10 µM LEO-AA7.5(S)T-treated MATH1-Prune1/TP53-/- cells after 24 hours were pooled. The relative levels of cytokines in the pooled conditioned media and murine sera were measured (RayBio C-Series Mouse Cytokine Antibody Array C3 [AAM-CYT-3-2]), according to the manufacturer protocol. Densitometric analysis was carried out using the Quantity One software (BioRad). Expression levels were normalized to the levels of the positive control spots (contained within the membrane). For each cytokine, the mean ±standard error was determined.

A further series has as its system D425-MED-Luc. Briefly: Orthotopic xenograft of D425-MED-Luc cells in nude mice. The format is in vivo. Conditions: 6 mg/kg/day intraperitoneally; for toxicity by total body weight, treated vs control mice / intracranial tumor growth (bioluminescence, photon emission) / PRUNE1 levels in cerebellar tumours (immunoblotting): HCl salt; for intracranial tumor growth (bioluminescence, photon emission): T21, after 14 days of treatment; for PRUNE1 levels in cerebellar tumours (immunoblotting): n.3 treated vs n.3 vehicle mice. The method, then: Starting after seven days from tumour implantation (i.e., once the tumours were established) the mice (grouped according to their bioluminescence values) were injected intraperitoneally with LEO-AA7.5(S)T at 6 mg/kg/day, or with water as the vehicle for the control group. After n.28 days from tumour implantation (i.e., after three weeks of AA7.5 treatment), the mice were sacrificed, and the organs were collected.
D425-MED-luc [Ferrucci et al., 2018] were implanted into the right cerebellar hemisphere of female (n.14) athymic nude mice (5 weeks old), as previously described [Asadzadeh et al., 2018], to establish orthotopic intracerebellar D425-MED-Luc xenograft models. Nude mice were anaesthetised with Ketamine/ Xylazine (87.5 mg/kg, 12.5 mg/kg, respectively). The mice were then placed in a stereotactic frame by hooking their incisors onto the frame hold. A small skin incision (length, 1 mm) and a burr hole (diameter, 0.7 mm) were created using a microsurgical drill (Fine Science Tools, Foster City, CA, USA). D425-MED-Luc cells (1 ×10^5)were resuspended in 10 µL PBS and injected slowly through the burr hole into the right cerebellar hemisphere (stereotactic coordinates from Bregma: anteroposterior, 5.5 mm; right lateral, 2.1 mm; dorsoventral 5.0 mm), with a steady force over 30 s, using a 10-AL, 26-gauge Hamilton Gastight model 1701RN syringe needle (SigmaAldrich) that was inserted perpendicular to the cranial surface. The incision was sutured using Safil polyglycolic acid synthetic absorbable suture (6/0). The mice were kept on a warming blanket after the surgery, to help them to maintain their body temperature. Their mobility and respiratory patterns were observed continuously, and once the mice had recovered from the anaesthesia; they were place in a sterile housing cage. The mice were monitored daily for development of potential neurological deficits. Seven days after the implantation of the cells, the mice were imaged, and tumour growth was evaluated by bioluminescence acquisition using an imaging system (IVIS 3D Illumina; Xenogen/ Caliper). For the acquisitions, the mice were anaesthetised by inhalational of isoflurane, and the D-luciferin (122799; PerkinElmer) (15 mg/mL stock) was injected intraperitoneally (100 µL per 10 g body weight). At 5 min from the luciferin injection, the mice were imaged for 3 min. To quantify the bioluminescence, the integrated fluxes of photons (p/s) within each area of interest were determined using the Living Images Software Package 3.2 (Xenogen-Perkin Elmer). For LEO-AA7.5(S)T in-vivo treatment, starting after seven days from tumour implantation (i.e., once the tumours were established) the mice (grouped according to their bioluminescence values) were injected intraperitoneally with LEO-AA7.5(S)T at 6 mg/kg/day, or with water as the vehicle for the control group. After 28 days from tumour implantation (i.e., after three weeks of AA7.5 treatment), the mice were sacrificed, and the organs were collected.
For orientation: Immunoblotting shows a protein as a band on a membrane.

A further series concerns Prune1. Briefly: Immunoblotting of Prune1 in MMTV-Prune1/Wnt1 cells. The format is cell-based, human and murine. Conditions: dose of 10 mM. Here is the method: D425.MED and MMTV-Prune1/Wnt1 cells were plated and treated with increasing concentrations of LEO-AA7.5(S)T for 24 hours. Water-treated cells were used as negative control for the experiments.
Cells for immunoblotting analysis were washed in cold PBS and lysed in cell lysis buffer [20 mM sodium phosphate (pH 7.4), 150 mM NaCl, 10% (v/v) glycerol, 1% (w/v) sodium deoxycholate, 1% (v/v) Triton X-100] supplemented with protease inhibitors (Roche). The resulting cell lysates were cleared by centrifugation at 16,200g for 10 min at room temperature, and the supernatants were re- moved and assayed for protein concentrations with the Protein Assay Dye Reagent (Bio-Rad). The cell lysates (30 µg) were resolved by SDS-polyacrylamide gel electrophoresis (SDS-PAGE) gels of different percentages, which depended on the molecular weights of the proteins of interest. The proteins were then electrophoretically transferred to polyvinylidene difluoride (PVDF) membranes (Millipore). After 1 hour in blocking solution with 5% (w/v) dry milk fat in PBS or 5% (w/v) BSA (Sigma-Aldrich) in tris-buffered saline [both of which contained 0.02% (v/v) Tween 20] […] The peak areas of the bands were measured on the densitometry plots, and the relative proportions (percentages) were calculated. […]

Where [2] appears, read: listed as (S)-(1-(4-((4-methoxybenzyl)amino)-1,3,5-triazin-2-yl)piperidin-3-yl)methanol HC.

For `COc1ccc(CNc2ncnc(N3CCC[C@H](CO)C3)n2)cc1.Cl` [LEO-AA7.5(S)T, (S)-(1-(4-((4-methoxybenzyl)amino)-1,3,5-triazin-2-yl)piperidin-3-yl)methanol HCl salt], the “number of cytokines/ chemokines significantly downregulated in the conditioned media” value in series [1] was 10. In the series with D425-MED-Luc, the “EMT in cerebellar tumours (N-cadherin loss, increased E-cadherin)” value is given as “inhibition of EMT”; the “activated PTEN in cerebellar tumours (immunoblotting)” value is reported as “overexpression”; the “nuclear phosphorylated SMAD2/3 and OTX2 in cerebellar tumours (immunoblotting)” value is “inhibition”; the “toxicity by total body weight, treated vs control mice” value is given as “No significant differences”. Besides, in the series with D425-MED-Luc, the “intracranial tumor growth (bioluminescence, photon emission)” value is reported as “impairment of tumour growth” and the “PRUNE1 levels in cerebellar tumours (immunoblotting)” value was “downregulation of Prune1”. Further, in the series with D425-MED-Luc (setting [2]), the “intracranial tumor growth (bioluminescence, photon emission)” value was “significantly decreased”; the “toxicity by total body weight, treated vs control mice” value is “no decrease in total body weight”; the “PRUNE1 levels in cerebellar tumours (immunoblotting)” value is given as “reduced PRUNE1 levels”. Besides, the “treated mice showing metastases in the spinal cord” value in the series with D425-MED-Luc (control mice 7 out of 7) is on record as “two out of seven”. In the series with Prune1, the “degradation of human and murine Prune protein” value is given as “enhance the degradation”.

These data come from patent EP4361137A1, “PRUNE1 INHIBITORS AND THERAPEUTIC USE THEREOF” (CEINGE Biotecnologie Avanzate Franco Salvatore s.c. a r.l., priority 2022, dated 2024).
